BindingDB's records for doi:10.1002/cbic.200600287 (Mcgill University, 2007)
Each block holds one compound with its values, some of them ahead of it.

Experiments:
Assay in all cases: PTP Assay
[1] = target: T1, Tyrosine-protein phosphatase non-receptor type 1 (Homo sapiens, UniProt P18031); conditions: 25 °C
T1 sequence (P18031 whole entry): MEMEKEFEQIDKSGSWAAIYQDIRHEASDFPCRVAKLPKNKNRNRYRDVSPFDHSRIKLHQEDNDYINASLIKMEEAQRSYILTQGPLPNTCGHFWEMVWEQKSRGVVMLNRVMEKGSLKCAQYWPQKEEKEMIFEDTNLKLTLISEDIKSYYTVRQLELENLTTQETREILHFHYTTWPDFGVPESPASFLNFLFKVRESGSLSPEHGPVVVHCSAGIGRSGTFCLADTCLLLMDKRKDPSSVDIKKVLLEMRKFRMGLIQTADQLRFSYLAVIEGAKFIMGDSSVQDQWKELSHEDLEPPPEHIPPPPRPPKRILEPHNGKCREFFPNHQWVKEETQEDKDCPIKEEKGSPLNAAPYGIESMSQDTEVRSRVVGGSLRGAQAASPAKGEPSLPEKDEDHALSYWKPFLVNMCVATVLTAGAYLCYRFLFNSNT
Procedure: (§1) PTP assay were conducted at 25 C in 96-well plates. Reaction rates were determined using a Variokan plate reader from Thermo Electron. For assay pH 7.0 absorbance was measured every 30s over 10 min and the reaction rates were calculated by linear regression. Because the p-nitrophenol product does not absorb at pH 6.0.

[2] = target: T2, Dual specificity protein phosphatase 22 (Homo sapiens, UniProt Q9NRW4); conditions: pH 6; 25 °C
T2 sequence (Q9NRW4 whole entry): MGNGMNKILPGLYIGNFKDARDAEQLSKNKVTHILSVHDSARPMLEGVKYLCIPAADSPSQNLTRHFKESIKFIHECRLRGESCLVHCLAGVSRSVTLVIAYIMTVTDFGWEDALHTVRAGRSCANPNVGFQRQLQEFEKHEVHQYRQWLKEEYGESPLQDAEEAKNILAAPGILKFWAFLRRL
Procedure: as §1

[3] = target: Receptor-type tyrosine-protein phosphatase F (Homo sapiens, UniProt P10586); conditions: pH 6; 25 °C
Chain of Receptor-type tyrosine-protein phosphatase F (P10586 whole entry): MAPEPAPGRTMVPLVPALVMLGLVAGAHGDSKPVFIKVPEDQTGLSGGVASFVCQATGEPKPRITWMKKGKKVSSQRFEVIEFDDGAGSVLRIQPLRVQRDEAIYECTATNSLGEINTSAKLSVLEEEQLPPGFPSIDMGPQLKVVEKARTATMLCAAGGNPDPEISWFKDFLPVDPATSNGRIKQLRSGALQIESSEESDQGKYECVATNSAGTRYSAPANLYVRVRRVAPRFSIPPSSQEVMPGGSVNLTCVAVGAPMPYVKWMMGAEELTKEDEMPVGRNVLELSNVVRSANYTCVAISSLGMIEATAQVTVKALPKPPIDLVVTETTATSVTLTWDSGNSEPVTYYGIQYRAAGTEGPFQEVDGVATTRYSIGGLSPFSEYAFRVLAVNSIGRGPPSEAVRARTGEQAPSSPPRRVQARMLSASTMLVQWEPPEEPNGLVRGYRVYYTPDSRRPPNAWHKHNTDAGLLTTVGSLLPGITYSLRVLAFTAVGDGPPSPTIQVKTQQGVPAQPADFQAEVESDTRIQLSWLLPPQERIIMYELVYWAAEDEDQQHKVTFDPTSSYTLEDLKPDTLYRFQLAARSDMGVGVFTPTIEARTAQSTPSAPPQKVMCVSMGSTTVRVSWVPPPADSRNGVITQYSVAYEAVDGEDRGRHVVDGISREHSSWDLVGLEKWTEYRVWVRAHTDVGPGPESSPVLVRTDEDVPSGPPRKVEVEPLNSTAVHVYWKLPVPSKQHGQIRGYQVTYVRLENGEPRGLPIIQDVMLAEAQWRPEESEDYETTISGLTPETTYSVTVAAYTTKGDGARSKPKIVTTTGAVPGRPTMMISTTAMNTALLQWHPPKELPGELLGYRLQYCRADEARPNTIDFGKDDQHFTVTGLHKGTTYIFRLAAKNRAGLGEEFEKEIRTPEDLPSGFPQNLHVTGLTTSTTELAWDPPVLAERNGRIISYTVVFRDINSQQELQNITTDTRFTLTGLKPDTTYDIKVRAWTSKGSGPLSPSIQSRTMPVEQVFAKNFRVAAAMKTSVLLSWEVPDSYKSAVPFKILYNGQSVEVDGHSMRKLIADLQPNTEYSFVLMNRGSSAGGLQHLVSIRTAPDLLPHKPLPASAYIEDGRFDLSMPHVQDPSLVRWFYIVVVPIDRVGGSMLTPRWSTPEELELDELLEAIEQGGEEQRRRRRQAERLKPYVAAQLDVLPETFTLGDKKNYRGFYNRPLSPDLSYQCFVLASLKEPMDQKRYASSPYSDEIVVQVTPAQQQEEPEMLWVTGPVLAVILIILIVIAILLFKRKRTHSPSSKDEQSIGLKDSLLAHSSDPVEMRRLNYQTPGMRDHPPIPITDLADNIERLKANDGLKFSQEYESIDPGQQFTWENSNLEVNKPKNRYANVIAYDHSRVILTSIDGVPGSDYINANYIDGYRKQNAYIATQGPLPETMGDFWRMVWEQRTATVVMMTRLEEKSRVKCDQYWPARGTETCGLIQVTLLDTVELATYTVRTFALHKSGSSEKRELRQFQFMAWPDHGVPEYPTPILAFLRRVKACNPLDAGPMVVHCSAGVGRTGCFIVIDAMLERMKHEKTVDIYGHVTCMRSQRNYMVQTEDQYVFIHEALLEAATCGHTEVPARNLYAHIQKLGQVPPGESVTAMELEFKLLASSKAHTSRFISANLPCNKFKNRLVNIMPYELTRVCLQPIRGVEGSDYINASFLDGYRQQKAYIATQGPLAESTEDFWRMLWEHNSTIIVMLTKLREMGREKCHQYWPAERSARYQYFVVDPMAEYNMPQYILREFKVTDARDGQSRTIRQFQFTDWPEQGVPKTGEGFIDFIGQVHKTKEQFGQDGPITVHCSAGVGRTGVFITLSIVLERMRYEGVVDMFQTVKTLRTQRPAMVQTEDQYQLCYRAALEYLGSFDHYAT
Procedure: as §1

[4] = target: Tyrosine-protein phosphatase non-receptor type 13 (Homo sapiens, UniProt Q12923); conditions: pH 7; 25 °C
Chain of Tyrosine-protein phosphatase non-receptor type 13 (Q12923 whole entry): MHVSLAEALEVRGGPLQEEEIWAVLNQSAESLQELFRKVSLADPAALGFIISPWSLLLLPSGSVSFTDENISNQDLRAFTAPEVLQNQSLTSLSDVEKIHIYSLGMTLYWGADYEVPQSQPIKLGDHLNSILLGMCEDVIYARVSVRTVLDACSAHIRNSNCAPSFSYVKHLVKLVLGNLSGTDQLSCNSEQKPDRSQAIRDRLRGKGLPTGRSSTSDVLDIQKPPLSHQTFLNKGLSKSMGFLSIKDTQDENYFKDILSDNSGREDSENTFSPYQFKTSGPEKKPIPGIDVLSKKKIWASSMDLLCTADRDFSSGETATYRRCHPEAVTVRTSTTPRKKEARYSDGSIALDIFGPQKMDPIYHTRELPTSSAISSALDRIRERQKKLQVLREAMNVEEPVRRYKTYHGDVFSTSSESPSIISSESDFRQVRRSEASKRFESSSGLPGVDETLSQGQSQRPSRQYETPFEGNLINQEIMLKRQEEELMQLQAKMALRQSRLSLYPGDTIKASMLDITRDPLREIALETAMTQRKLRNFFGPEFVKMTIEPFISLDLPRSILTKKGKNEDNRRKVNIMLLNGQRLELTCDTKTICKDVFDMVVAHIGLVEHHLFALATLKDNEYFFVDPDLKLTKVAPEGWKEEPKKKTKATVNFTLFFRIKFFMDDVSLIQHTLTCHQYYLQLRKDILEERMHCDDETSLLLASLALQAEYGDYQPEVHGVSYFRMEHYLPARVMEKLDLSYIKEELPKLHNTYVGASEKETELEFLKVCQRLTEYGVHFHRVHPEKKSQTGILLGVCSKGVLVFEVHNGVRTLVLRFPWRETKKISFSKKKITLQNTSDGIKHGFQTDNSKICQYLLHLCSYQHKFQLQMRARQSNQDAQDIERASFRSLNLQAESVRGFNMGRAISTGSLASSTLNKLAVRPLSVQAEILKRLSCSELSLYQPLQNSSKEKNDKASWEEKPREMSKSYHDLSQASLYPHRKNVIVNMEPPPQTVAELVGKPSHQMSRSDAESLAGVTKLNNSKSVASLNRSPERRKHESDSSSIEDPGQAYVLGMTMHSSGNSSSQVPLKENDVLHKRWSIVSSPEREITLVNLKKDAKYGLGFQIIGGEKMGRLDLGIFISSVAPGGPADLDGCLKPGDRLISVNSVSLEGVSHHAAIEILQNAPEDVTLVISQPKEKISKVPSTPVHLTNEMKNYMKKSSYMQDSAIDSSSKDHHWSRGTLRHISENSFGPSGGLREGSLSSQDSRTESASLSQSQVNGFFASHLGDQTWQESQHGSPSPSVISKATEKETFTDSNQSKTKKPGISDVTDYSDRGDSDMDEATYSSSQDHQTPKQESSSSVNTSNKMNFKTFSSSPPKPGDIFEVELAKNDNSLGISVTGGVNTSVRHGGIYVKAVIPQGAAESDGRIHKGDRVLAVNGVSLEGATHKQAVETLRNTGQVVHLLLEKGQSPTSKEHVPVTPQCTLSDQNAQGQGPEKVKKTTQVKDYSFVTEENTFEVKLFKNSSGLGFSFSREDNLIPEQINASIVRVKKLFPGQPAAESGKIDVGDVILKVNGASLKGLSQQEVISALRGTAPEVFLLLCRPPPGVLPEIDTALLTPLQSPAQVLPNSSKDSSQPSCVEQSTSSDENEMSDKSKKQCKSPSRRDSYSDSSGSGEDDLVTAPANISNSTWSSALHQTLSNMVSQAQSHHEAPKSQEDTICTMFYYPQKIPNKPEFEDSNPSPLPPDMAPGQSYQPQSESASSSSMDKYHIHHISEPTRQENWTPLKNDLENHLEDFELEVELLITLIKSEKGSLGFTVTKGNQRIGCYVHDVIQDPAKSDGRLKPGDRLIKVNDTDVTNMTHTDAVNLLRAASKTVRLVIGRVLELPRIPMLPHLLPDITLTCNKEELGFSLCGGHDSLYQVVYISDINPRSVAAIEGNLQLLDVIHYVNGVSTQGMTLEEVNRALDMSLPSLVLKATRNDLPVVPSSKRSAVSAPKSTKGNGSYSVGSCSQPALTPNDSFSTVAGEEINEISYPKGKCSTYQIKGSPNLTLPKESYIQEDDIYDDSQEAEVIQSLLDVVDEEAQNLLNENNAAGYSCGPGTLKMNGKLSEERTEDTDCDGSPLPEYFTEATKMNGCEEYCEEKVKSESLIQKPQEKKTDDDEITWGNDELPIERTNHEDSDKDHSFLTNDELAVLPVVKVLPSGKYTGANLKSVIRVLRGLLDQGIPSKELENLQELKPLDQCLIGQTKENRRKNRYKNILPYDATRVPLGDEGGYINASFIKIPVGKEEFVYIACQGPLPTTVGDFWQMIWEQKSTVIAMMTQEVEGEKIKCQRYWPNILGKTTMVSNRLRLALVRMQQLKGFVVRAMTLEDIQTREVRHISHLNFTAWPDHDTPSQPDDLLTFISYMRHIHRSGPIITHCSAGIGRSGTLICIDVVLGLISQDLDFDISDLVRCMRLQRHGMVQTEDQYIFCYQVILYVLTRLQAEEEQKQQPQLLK
Procedure: as §1

[5] = target: T3, Tyrosine-protein phosphatase non-receptor type 2 (Homo sapiens, UniProt P17706); conditions: pH 7; 25 °C
T3 sequence (P17706 whole entry): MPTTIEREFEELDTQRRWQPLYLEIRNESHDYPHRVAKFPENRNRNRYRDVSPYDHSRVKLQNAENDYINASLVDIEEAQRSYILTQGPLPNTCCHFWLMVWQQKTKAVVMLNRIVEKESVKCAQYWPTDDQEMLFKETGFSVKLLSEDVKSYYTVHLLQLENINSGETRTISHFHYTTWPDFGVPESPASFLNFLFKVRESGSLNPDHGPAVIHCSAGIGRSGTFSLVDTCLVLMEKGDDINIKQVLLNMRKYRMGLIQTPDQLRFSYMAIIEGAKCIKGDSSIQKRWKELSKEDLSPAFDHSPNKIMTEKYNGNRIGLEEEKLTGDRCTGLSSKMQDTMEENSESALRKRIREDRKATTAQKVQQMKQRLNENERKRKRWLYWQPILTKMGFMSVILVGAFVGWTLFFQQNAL
Procedure: as §1

[6] = target: Tyrosine-protein phosphatase non-receptor type 6 (Homo sapiens, UniProt P29350); conditions: pH 7; 25 °C
Chain of Tyrosine-protein phosphatase non-receptor type 6 (P29350 whole entry): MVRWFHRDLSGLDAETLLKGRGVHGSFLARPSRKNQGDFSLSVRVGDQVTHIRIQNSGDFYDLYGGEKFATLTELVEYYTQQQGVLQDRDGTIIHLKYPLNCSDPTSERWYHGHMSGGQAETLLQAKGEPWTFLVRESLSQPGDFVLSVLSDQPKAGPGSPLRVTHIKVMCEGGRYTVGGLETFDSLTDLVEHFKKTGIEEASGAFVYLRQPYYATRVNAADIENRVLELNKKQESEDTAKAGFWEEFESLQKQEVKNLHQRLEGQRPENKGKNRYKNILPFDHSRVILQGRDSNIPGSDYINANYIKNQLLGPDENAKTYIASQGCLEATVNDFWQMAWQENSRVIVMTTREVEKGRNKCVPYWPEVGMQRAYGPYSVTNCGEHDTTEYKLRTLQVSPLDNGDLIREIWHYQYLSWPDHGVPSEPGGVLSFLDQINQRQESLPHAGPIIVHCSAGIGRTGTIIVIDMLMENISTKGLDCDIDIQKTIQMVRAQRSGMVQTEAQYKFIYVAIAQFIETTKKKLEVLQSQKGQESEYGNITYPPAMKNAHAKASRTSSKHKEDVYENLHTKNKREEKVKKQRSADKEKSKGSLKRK
Procedure: as §1

[7] = target: T4, Tyrosine-protein phosphatase non-receptor type 7 (Homo sapiens, UniProt P35236); conditions: pH 7; 25 °C
T4 sequence (P35236 whole entry): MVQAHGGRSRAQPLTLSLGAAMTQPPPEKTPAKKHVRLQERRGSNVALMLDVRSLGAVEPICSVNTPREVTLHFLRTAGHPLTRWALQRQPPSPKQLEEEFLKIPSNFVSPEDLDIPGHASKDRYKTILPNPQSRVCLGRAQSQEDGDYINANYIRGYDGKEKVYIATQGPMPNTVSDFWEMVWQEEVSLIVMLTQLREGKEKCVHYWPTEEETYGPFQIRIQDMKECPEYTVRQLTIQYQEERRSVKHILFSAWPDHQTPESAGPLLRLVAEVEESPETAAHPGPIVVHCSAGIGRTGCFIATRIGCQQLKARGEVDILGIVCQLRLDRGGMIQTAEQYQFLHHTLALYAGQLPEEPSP
Procedure: as §1

IC50 [1]: > 100 µM
Compound: COc1cc(C=C2SC(=S)N(c3cccc(Cl)c3)C2=O)cc(CP(=O)(O)O)c1O [Thioxothiazolidinone derivative, 18]

IC50 [1]: 68 µM
Compound: O=C1/C(=C/c2ccc(O)c([N+](=O)[O-])c2)SC(=S)N1c1cccc(Cl)c1 [Thioxothiazolidinone derivative, 13]

IC50 [1]: 7 µM
Compound: COc1cc(/C=C2\SC(=S)N(c3ccc([N+](=O)[O-])cc3)C2=O)cc([N+](=O)[O-])c1O [Thioxothiazolidinone derivative, 11]

IC50 [1]: 7.3 µM
Compound: COc1cc(/C=C2\SC(=S)N(c3cccc(Cl)c3)C2=O)cc(C(=O)O)c1O [Thioxothiazolidinone derivative, 17]

IC50 [1]: 7 µM
Compound: COc1cc(/C=C2\SC(=S)N(c3ccc(Cl)c(Cl)c3)C2=O)cc([N+](=O)[O-])c1O [Thioxothiazolidinone derivative, 12]

IC50 [1]: 18.1 µM
Compound: O=C1/C(=C/c2cc(O)c(O)c([N+](=O)[O-])c2)SC(=S)N1c1cccc(Cl)c1 [Thioxothiazolidinone derivative, 15]

IC50 [1]: 44 µM
Compound: COc1cc(/C=C2\SC(=S)N(c3cccc(Cl)c3)C2=O)ccc1O [Thioxothiazolidinone derivative, 14]

The remaining lines, values behind:

Compound: COc1cc(/C=C2\SC(=S)N(c3cccc(C)c3)C2=O)cc([N+](=O)[O-])c1O [Thioxothiazolidinone derivative, 6]
IC50 [1]: 29 µM

Compound: COc1cc(/C=C2\SC(=S)N(c3ccc(C)cc3)C2=O)cc([N+](=O)[O-])c1O [Thioxothiazolidinone derivative, 9]
IC50 [1]: 8.8 µM

Compound: COc1cc(/C=C2\SC(=S)N(c3ccc(Cl)cc3)C2=O)cc([N+](=O)[O-])c1O [Thioxothiazolidinone derivative, 4]
IC50 [1]: 5.4 µM

Compound: COc1cccc(N2C(=O)/C(=C/c3cc(OC)c(O)c([N+](=O)[O-])c3)SC2=S)c1 [Thioxothiazolidinone derivative, 7]
IC50 [1]: 16 µM

Compound: COc1ccc(N2C(=O)/C(=C/c3cc(OC)c(O)c([N+](=O)[O-])c3)SC2=S)cc1 [Thioxothiazolidinone derivative, 10]
IC50 [1]: 6.3 µM

Compound: COc1cc(/C=C2\SC(=S)N(c3cccc(F)c3)C2=O)cc([N+](=O)[O-])c1O [Thioxothiazolidinone derivative, 5]
IC50 [1]: 12 µM

Compound: COc1cc(/C=C2\SC(=S)N(c3ccc(O)cc3)C2=O)cc([N+](=O)[O-])c1O [Thioxothiazolidinone derivative, 8]
IC50 [1]: 29 µM

Compound: COc1cc(/C=C2\SC(=S)N(c3cccc(Cl)c3)C2=O)cc([N+](=O)[O-])c1O [Thioxothiazolidinone derivative, 1]
IC50 [2]: > 50 µM | IC50 [3]: > 50 µM | IC50 ([1]; pH 6): 4.3 µM | IC50 ([1]; pH 7): 4.1 µM | IC50 [4]: 3.7 µM | IC50 [5]: 5.3 µM | IC50 [6]: 3.9 µM | IC50 [7]: 9.3 µM

Compound: COc1cc(/C=C2\SC(=S)N(c3ccccc3)C2=O)cc([N+](=O)[O-])c1O [Thioxothiazolidinone derivative, 3]
IC50 [1]: > 100 µM
